Assay results published in publication PMC11167047 (Cell Death Discovery, 2024).

Tests used:
Assay in all cases: kinome screen (33PanQinase)
Type in all cases: biochemical
ERK1 = biological target: T1, ERK1 (Homo sapiens, UniProt P27361)
T1 construct: purchased Reaction Biology Europe GmbH (formerly ProQinase)
Description: (§1) The Kinome Screening was performed by Reaction Biology Europe GmbH (http://reactionbiology.com; Freiburg i. Br., Germany).

HRI = biological target: T2, HRI (Homo sapiens, UniProt Q9BQI3)
T2 construct: purchased Reaction Biology Europe GmbH (formerly ProQinase)
Description: as §1

PIM3 = biological target: T3, PIM3 (Homo sapiens, UniProt Q86V86)
T3 construct: purchased Reaction Biology Europe GmbH (formerly ProQinase)
Description: as §1

PKCμ = biological target: T4, PKCμ (Homo sapiens, UniProt Q15139)
T4 construct: purchased Reaction Biology Europe GmbH (formerly ProQinase)
T4 sequence (Q15139 1-912): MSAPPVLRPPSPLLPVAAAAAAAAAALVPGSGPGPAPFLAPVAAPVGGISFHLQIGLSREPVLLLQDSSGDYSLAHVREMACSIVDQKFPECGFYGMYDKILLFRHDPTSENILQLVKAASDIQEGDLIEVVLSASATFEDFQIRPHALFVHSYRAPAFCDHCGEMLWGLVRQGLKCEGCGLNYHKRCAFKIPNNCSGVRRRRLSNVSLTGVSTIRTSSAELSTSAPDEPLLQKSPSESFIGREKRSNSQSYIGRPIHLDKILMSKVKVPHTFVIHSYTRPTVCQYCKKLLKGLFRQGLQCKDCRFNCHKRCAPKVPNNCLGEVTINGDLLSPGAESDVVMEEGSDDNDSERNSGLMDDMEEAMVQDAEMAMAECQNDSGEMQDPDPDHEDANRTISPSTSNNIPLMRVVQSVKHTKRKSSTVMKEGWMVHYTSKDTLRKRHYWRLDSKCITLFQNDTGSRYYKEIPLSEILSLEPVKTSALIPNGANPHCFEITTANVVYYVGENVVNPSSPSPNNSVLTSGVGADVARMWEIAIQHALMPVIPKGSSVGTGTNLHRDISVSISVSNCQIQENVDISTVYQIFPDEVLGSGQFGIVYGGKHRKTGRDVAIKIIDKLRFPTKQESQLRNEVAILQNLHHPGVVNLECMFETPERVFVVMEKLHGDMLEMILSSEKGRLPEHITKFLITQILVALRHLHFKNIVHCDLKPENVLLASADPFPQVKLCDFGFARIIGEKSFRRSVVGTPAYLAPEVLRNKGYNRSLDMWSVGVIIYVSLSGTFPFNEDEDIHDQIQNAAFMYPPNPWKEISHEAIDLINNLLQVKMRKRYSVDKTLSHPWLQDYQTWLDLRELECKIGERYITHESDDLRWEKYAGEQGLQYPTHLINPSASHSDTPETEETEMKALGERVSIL
Description: as §1

RIPK4 = biological target: T5, RIPK4 (Homo sapiens, UniProt P57078)
T5 construct: purchased Reaction Biology Europe GmbH (formerly ProQinase)
T5 sequence (P57078 1-832): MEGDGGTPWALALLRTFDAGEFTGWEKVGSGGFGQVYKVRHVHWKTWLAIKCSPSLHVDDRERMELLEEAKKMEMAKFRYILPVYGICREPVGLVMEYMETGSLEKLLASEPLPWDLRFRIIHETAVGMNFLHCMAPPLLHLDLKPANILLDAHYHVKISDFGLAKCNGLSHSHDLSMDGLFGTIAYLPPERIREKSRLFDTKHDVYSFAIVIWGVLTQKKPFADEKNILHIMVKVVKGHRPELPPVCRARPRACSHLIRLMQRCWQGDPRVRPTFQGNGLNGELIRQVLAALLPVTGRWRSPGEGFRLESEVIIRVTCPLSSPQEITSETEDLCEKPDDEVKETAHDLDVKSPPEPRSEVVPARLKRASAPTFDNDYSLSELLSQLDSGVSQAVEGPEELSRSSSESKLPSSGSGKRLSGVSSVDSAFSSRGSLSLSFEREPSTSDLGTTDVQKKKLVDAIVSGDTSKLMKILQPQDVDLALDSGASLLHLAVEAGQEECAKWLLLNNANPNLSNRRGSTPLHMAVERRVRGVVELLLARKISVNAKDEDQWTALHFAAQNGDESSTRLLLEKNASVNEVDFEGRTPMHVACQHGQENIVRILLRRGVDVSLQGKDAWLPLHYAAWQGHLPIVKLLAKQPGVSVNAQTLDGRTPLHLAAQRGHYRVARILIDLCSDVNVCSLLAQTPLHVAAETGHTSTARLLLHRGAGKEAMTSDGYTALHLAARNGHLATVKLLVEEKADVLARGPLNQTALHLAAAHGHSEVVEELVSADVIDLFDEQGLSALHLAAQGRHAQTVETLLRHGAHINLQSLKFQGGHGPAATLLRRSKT
Description: as §1

SAK = biological target: T6, SAK (Homo sapiens, UniProt O00444)
T6 construct: purchased Reaction Biology Europe GmbH (formerly ProQinase)
T6 sequence (O00444 1-970): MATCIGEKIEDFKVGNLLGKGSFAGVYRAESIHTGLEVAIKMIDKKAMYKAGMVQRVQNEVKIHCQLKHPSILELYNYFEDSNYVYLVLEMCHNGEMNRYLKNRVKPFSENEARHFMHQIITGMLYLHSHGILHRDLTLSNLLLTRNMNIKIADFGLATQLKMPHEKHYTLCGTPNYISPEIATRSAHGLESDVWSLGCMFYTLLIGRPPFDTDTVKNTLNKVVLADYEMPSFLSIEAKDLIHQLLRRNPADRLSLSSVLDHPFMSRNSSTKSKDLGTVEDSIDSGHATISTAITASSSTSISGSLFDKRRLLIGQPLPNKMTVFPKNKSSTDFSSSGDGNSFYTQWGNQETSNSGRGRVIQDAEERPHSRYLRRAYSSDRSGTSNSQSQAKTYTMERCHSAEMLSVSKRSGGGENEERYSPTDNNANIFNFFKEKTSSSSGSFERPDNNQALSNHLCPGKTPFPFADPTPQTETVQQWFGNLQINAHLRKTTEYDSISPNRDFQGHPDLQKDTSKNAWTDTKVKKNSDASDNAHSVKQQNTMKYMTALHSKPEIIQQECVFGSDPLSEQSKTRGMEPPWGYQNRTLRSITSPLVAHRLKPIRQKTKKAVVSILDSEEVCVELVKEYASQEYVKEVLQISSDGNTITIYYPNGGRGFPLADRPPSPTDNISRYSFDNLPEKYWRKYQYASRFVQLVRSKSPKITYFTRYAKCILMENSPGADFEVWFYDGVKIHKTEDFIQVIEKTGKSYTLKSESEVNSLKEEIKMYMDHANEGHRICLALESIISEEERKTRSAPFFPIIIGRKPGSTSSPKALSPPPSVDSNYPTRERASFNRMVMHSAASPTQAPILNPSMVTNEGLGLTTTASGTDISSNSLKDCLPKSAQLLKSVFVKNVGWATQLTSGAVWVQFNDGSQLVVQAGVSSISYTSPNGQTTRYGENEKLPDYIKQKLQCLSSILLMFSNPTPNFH
Description: as §1

T2 sequence (Q9BQI3 whole entry): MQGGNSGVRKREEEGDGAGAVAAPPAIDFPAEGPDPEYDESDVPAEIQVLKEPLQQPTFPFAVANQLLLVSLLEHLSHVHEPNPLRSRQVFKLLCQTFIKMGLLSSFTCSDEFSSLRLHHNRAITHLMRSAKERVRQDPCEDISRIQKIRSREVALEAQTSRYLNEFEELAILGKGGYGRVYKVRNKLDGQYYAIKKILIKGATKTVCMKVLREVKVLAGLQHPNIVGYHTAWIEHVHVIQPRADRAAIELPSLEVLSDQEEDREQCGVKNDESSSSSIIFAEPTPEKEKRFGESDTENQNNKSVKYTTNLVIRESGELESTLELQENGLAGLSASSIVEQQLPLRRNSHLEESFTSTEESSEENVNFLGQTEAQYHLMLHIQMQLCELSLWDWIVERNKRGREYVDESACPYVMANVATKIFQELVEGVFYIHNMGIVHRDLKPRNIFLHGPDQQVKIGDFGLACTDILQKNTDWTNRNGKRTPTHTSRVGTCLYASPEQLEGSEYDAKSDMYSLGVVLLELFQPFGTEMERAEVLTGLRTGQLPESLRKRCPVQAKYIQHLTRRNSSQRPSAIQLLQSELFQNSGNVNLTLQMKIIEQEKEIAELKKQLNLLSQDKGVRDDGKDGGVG
T1 sequence (P27361 whole entry): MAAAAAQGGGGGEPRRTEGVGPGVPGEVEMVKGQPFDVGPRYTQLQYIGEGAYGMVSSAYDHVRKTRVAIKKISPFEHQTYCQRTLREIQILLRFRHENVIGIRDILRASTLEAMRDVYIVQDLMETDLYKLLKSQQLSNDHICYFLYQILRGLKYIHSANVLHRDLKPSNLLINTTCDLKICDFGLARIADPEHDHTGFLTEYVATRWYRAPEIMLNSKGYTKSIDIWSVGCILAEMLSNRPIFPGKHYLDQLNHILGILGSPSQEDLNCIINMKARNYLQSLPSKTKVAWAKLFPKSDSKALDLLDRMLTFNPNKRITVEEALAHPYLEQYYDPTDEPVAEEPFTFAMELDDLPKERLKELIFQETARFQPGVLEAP

For `COc1ccnc2[nH]cc(-c3cc(N)nc(N)c3)c12` [meriolin 16], the residual kinase activity (ERK1; 0.03 µM) was 111 % of control, the residual kinase activity (ERK1; 0.3 µM) was 96 % of control and the residual kinase activity (HRI; 0.03 µM) was 98 % of control. The residual kinase activity (HRI; 0.3 µM) was 90 % of control, the residual kinase activity (PIM3; 0.03 µM) was 118 % of control and the residual kinase activity (PIM3; 0.3 µM) was 68 % of control. For the same compound, the residual kinase activity (PKCμ; 0.03 µM) was 77 % of control, the residual kinase activity (PKCμ; 0.3 µM) was 24 % of control and the residual kinase activity (RIPK4; 0.03 µM) was 94 % of control. For the same compound, the residual kinase activity (RIPK4; 0.3 µM) was 75 % of control, the residual kinase activity (SAK; 0.03 µM) was 97 % of control and the residual kinase activity (SAK; 0.3 µM) was 84 % of control.
For `c1ccc(CNc2cc(-c3c[nH]c4ncccc34)ccn2)cc1` [meriolin 36], the residual kinase activity (ERK1; 0.3 µM) was 72 % of control, the residual kinase activity (ERK1; 3 µM) was 37 % of control and the residual kinase activity (HRI; 0.3 µM) was 93 % of control. For the same compound, the residual kinase activity (HRI; 3 µM) was 71 % of control, the residual kinase activity (PIM3; 0.3 µM) was 85 % of control and the residual kinase activity (PIM3; 3 µM) was 46 % of control. The residual kinase activity (PKCμ; 0.3 µM) was 63 % of control, the residual kinase activity (PKCμ; 3 µM) was 23 % of control and the residual kinase activity (RIPK4; 0.3 µM) was 88 % of control. The residual kinase activity (RIPK4; 3 µM) was 45 % of control, the residual kinase activity (SAK; 0.3 µM) was 53 % of control and the residual kinase activity (SAK; 3 µM) was 24 % of control.
